Among the data in US4393225A, “AI-77 Compounds and pharmaceutically acceptable salts thereof” (Asahi Kasei Kogyo Kabushiki Kaisha, priority 1979, dated 1983) are inhibition in vivo values, retold here.

The test system of one assay is ulcer. The experiment in a line: Anti-ulcer test (restraint and water immersion ulcer in rats, i.p.). As to conditions: Rattus norvegicus, ip, read-out: % Inhibition of Ulcer. In kind it is in vivo, Male Wistar rats. The procedure:
The anti-ulcer and anti-edema activity of the compounds was evaluated in efficacy tests described below.
Male Wistar rats weighing about 150 g on average were not fed for 24 hours before the test. Then a solution or suspension of a predetermined concentration of the test compound in physiological saline was administered to them intraperitoneally. One hour after the administration,each rat was restrained in a net cage and submerged in a water both (21° C.) from the tail to xiphistrenun for 6 hours. Test animals were then killed (by dislocation of the cervical vertebrae), the stomach was removed and incised along the curvatura ventriculi major, and the inside wall of the stomach was pathologically examined under microscopic observation. Rats in which the occurrence of an ulceration was substantially not observed were rated O, while others were rated 0.5, 1, 2 or 3, depending on the severity of the ulcer development. The percent inhibition of ulcer was calculated by the following formula: [formula]
For the compound `CC(C)CC(NC(=O)C(O)C1OC(=O)CC1NC(=O)C1CC2C=CC1C2)C1Cc2cccc(O)c2C(=O)O1` (centres unmarked) [IIIa-1-71], the inhibition in vivo at 50 mg/kg amounted to 66%.
Regarding `CCCCNC(CC(N)=O)C(O)C(OC(=O)CCC)C(=O)NC(CC(C)C)C1Cc2cccc(O)c2C(=O)O1` (centres unmarked) [VII-11-3], the inhibition in vivo at 25 mg/kg amounted to 66%.
On to `CC(C)CC(NC(=O)C(O)C(O)C(N)CC(N)=O)C1Cc2cccc(O)c2C(=O)O1` (centres unmarked) [VII-1-1], for which the inhibition in vivo at 25 mg/kg was determined as 100%.

The same assay, now with this note: Rattus norvegicus, ip; 25 mg/kg i.p.; read-out: % Inhibition of Ulcer.
In the case of `CC(C)CC(NC(=O)C(O)C(O)C(N)CC(=O)NCc1ccccc1)C1Cc2cccc(O)c2C(=O)O1` (centres unmarked) [VII-1-10], the inhibition in vivo at 25 mg/kg was determined as 94%.
With `CNC(CC(N)=O)C(O)C(OC)C(=O)NC(CC(C)C)C1Cc2cccc(OC(C)=O)c2C(=O)O1` (centres unmarked) [VII-27-1], the inhibition in vivo at 25 mg/kg came to 66%.
For the compound `CCCCCCCCCCCCCCCCCC(=O)Oc1cccc2c1C(=O)OC(C(CC(C)C)NC(=O)C(OC)C(O)C(N)CC(N)=O)C2` (centres unmarked) [VII-9-2], the inhibition in vivo at 25 mg/kg was found to be 56%.
The same measure, in the same setting: for `CCCCCCCCCCCCCCCCCCNC(CC(N)=O)C(O)C(O)C(=O)NC(CC(C)C)C1Cc2cccc(O)c2C(=O)O1` (centres unmarked) [VII-10-5] the value was 89%.
Same read-out and setting: the same measure for `COC(C(=O)NC(CC(C)C)C1Cc2cccc(OC(C)=O)c2C(=O)O1)C(O)C(N)CC(N)=O` (centres unmarked) [VII-9-3]: 72%; for `CCCCOc1cccc2c1C(=O)OC(C(CC(C)C)NC(=O)C(OC)C(O)C(CC(=O)NCC)NCC)C2` (centres unmarked) [VII-16-4]: 44%.
As for `CCCCCCCCCCCCCCCCCCNC(=O)CC(N)C(O)C(O)C(=O)NC(CC(C)C)C1Cc2cccc(O)c2C(=O)O1` (centres unmarked) [VII-1-6], the inhibition in vivo at 25 mg/kg was found to be 89%.
Regarding `CCCCOC(C(=O)NC(CC(C)C)C1Cc2cccc(OC(C)=O)c2C(=O)O1)C(O)C(CC(N)=O)NCC` (centres unmarked) [VII-18-1], the inhibition in vivo at 25 mg/kg was 66%.
Still for that read-out and setting: for `CCC(=O)OC(C(=O)NC(CC(C)C)C1Cc2cccc(OC)c2C(=O)O1)C(O)C(CC(N)=O)NC(C)=O` (centres unmarked) [VII-33-1] the value was 66%.

Still in this assay, the particulars now being: Rattus norvegicus, ip; 50 mg/kg i.p.; read-out: % Inhibition of Ulcer.
Consider `CC(C)CC(NC(=O)C(O)C1OC(=O)CC1NCC(Cl)(Cl)Cl)C1Cc2cccc(O)c2C(=O)O1` (centres unmarked) [IIIa-18-12], for which the inhibition in vivo at 50 mg/kg amounted to 94%.
Same read-out and setting: for `CC(C)CC(NC(=O)C(O)C1OC(=O)CC1N)C1Cc2cccc(OCC3CCCO3)c2C(=O)O1` (centres unmarked) [IIIa-13-14] the value was 89%; for `CCOc1cccc2c1C(=O)OC(C(CC(C)C)NC(=O)C(O)C1OC(=O)CC1NC(=O)CC1CCCCO1)C2` (centres unmarked) [IIIa-5-24], 44%; for `CC(C)CC(NC(=O)C(O)C1OC(=O)CC1N)C1Cc2cccc(OCc3ccc4ccccc4c3)c2C(=O)O1` (centres unmarked) [IIIa-13-17], 72%.
As to `CCOc1cccc2c1C(=O)OC(C(CC(C)C)NC(=O)C(O)C1OC(=O)CC1NC(=O)CCCCC(C)CC)C2` (centres unmarked) [IIIa-5-55], the inhibition in vivo at 50 mg/kg turned out to be 33%.
In the case of `CCOc1cccc2c1C(=O)OC(C(CC(C)C)NC(=O)C(O)C1OC(=O)CC1NC(=O)CSC)C2` (centres unmarked) [IIIa-5-43], the inhibition in vivo at 50 mg/kg stood at 44%.
Same read-out and setting: the same measure for `CCOc1cccc2c1C(=O)OC(C(CC(C)C)NC(=O)C(O)C1OC(=O)CC1NCCSC)C2` (centres unmarked) [IIIa-22-39]: 94%; for `CCOc1cccc2c1C(=O)OC(C(CC(C)C)NC(=O)C(O)C1OC(=O)CC1NC(=O)CC(C)C)C2` (centres unmarked) [IIIa-5-2]: 44%.
Still for that read-out and setting: for `CC(C)CC(NC(=O)C(O)C1OC(=O)CC1N)C1Cc2cccc(OC(=O)C3CCCO3)c2C(=O)O1` (centres unmarked) [IIIa-12-5] the value was 78%.
The same measure, in the same setting: for `CC(C)CC(NC(=O)C(O)C1OC(=O)CC1N)C1Cc2cccc(OC(=O)C(Cl)(Cl)Cl)c2C(=O)O1` (centres unmarked) [IIIa-12-9] the value was 66%; for `CC(C)CC(NC(=O)C(O)C1C=CC(=O)O1)C1Cc2cccc(OCc3ccccc3)c2C(=O)O1` (centres unmarked) [IVa-4-9], 33%.
Take `CC(=O)Oc1cccc2c1C(=O)OC(C(CC(C)C)NC(=O)C(O)C1OC(=O)CC1NC(=O)c1ccc(OCCC(C)C)cc1)C2` (centres unmarked) [IIIa-4-8]: the inhibition in vivo at 50 mg/kg came to 33%.
Same read-out and setting: for `CCCCNC(CC(=O)O)C(O)C(O)C(=N)NC(CC(C)C)C1Cc2cccc(O)c2C(=O)O1` (centres unmarked) [Vb-10-2] the value was 100%; for `CCCCCCCCCCCCCCCCCC(=O)NC1CC(=O)OC1C(O)C(=O)NC(CC(C)C)C1Cc2cccc(OCCCCCCC)c2C(=O)O1` (centres unmarked) [IIIa-5-6], 33%.
Still for that read-out and setting: for `CCCCNC1CC(=O)OC1C(OC(=O)CCC)C(=O)NC(CC(C)C)C1Cc2cccc(O)c2C(=O)O1` (centres unmarked) [IIIa-19-10] the value was 66%.
Turning to `CCCCOc1cccc2c1C(=O)OC(C(CC(C)C)NC(=O)C(O)C1OC(=O)CC1N)C2` (centres unmarked) [IIIa-13-3], the inhibition in vivo at 50 mg/kg is 100%.
The same measure, in the same setting: for `CCCCCCCCCCCC(=O)OC(C(=O)NC(CC(C)C)C1Cc2cccc(O)c2C(=O)O1)C1C=CC(=O)O1` (centres unmarked) [IVa-1-10] the value was 33%; for `CCOc1cccc2c1C(=O)OC(C(CC(C)C)NC(=O)C(OC)C1OC(=O)CC1NC(=O)c1ccc(OCCC(C)C)cc1)C2` (centres unmarked) [IIIa-7-9], 22%; for `CCCCCCCC(=O)Oc1cccc2c1C(=O)OC(C(CC(C)C)NC(=O)C(O)C1C=CC(=O)O1)C2` (centres unmarked) [IVa-3-7], 33%.
On the same count and under the same terms, the same measure for `CCCCCC(=O)Oc1cccc2c1C(=O)OC(C(CC(C)C)NC(=O)C(O)C1C=CC(=O)O1)C2` (centres unmarked) [IVa-3-5]: 33%; for `COC(C)(C)CC(=O)NC1CC(=O)OC1C(O)C(=O)NC(CC(C)C)C1Cc2cccc(O)c2C(=O)O1` (centres unmarked) [IIIa-1-83]: 66%.
The same measure, in the same setting: the same measure for `CC(C)CC(NC(=O)C(O)C1OC(=O)CC1NC(=O)CCCBr)C1Cc2cccc(O)c2C(=O)O1` (centres unmarked) [IIIa-1-31]: 66%; for `CC(=O)Oc1cccc2c1C(=O)OC(C(CC(C)C)NC(=O)C(O)C1OC(=O)CC1NC(=O)C1CCCO1)C2` (centres unmarked) [IIIa-4-5]: 33%; for `CC(C)CC(NC(=O)C(O)C1C=CC(=O)O1)C1Cc2cccc(OCc3ccc4ccccc4c3)c2C(=O)O1` (centres unmarked) [IVa-4-17]: 33%.
Take `CC(C)=CC(=O)NC1CC(=O)OC1C(O)C(=O)NC(CC(C)C)C1Cc2cccc(O)c2C(=O)O1` (centres unmarked) [IIIa-1-81]: the inhibition in vivo at 50 mg/kg worked out at 66%.
The same measure, in the same setting: for `CC(C)CC(NC(=O)C(O)C1OC(=O)CC1NC(=O)CCCCCCCCCO)C1Cc2cccc(O)c2C(=O)O1` (centres unmarked) [IIIa-1-78] the value was 66%.
Same read-out and setting: for `CCOc1cccc2c1C(=O)OC(C(CC(C)C)NC(=O)C(O)C1OC(=O)CC1NC(=O)CC1CC1)C2` (centres unmarked) [IIIa-5-76] the value was 33%.
Turning to `CNC1CC(=O)OC1C(OC(C)=O)C(=O)NC(CC(C)C)C1Cc2cccc(OC(C)=O)c2C(=O)O1` (centres unmarked) [IIIa-29-1], the inhibition in vivo at 50 mg/kg is 56%.
On the same count and under the same terms, for `COc1ccc(C(=O)Oc2cccc3c2C(=O)OC(C(CC(C)C)NC(=O)C(O)C2C=CC(=O)O2)C3)cc1` (centres unmarked) [IVa-3-16] the value was 33%.
Consider `CCCC(=O)NC1CC(=O)OC1C(OC)C(=O)NC(CC(C)C)C1Cc2cccc(OCC3CCCCO3)c2C(=O)O1` (centres unmarked) [IIIa-7-14], for which the inhibition in vivo at 50 mg/kg amounted to 33%.
On the same count and under the same terms, for `CCCCCCCCC=CCCCCCCCC(=O)Oc1cccc2c1C(=O)OC(C(CC(C)C)NC(=O)C(O)C1OC(=O)CC1N)C2` (centres unmarked) [IIIa-12-4] the value was 72%; for `CCOc1cccc2c1C(=O)OC(C(CC(C)C)NC(=O)C(O)C1OC(=O)CC1NC(=O)c1cccs1)C2` (centres unmarked) [IIIa-5-25], 44%.
